Patent US10556844B2, “Pyrazole compounds as nitrification inhibitors” (BASF SE, priority 2015, dated 2020)

Tested on: nitrification
Experiment: Inhibition of nitrification in field soil (48 well plate, ammonium sulfate, colour reaction read at 540 nm)
Conditions: for IN (best inhibition value obtained for a compound): soil, room temperature, up to 72 hrs
Method: The compounds of the invention have been tested as follows in terms of the inhibition of nitrification:
Soil was sampled fresh from a field (e.g. Limburgerhof), dried and sieved through a 500 μm sieve. Approximately 200 mg of soil were placed into each well of a 48 well plate. Compounds, or DMSO alone, were added at a concentration of 10 ppm, dissolved in 1% DMSO. 6 μmol ammonium sulfate was added per well as well as 4.8 mg NaClO3.
Subsequently, the samples were incubated at room temperature for up to 72 hrs. After the incubation period 64 mg KCl were added and mixed. 25 μl of the supernatant were placed into a fresh plate and 260 μl of a color reaction solution (from Merck Nr 1.11799.0100) were added.
Measurements were taken with a Tecan plate Reader at 540 nm wavelength.
Inhibition is calculated as x=% activity compared to control, and converted to 100-x to give the value of inhibition, rather than activity.

Row | SMILES | IN (best inhibition value obtained for a compound) (dose of 10 ppm) | further results
1 | C#CCn1nc(O)c2ccccc21 [Compound A-14] | 59% | –
2 | C#CCn1cccn1 [Compound A-19] | 45% | –
3 | C#CCn1ncc2c1C(=O)c1ccccc1C2=O [Compound A-33] | 44% | –
4 | C#CCn1ncc(C(=O)O)c1C [Compound A-42] | 17% | –
5 | C#CCn1nc(C)c(OC(C)=O)c1C [Compound A-44] | – | IN (best inhibition value obtained for a compound) (dose of 5±1 ppm): 59%
6 | C=C=Cn1ccc(C)n1 [Compound B-5] | >10% | –
7 | C=C=Cn1nccc1C [Compound B-6] | >10% | –
8 | C#Cc1ccccc1 [Phenylacetylene, phenylacetylene, reference compound] | – | IN (inhibition value) (reference compound, same conditions, dose of 10 ppm): 7%
